Laboratory results reported in PubChem BioAssay AID1963424 (Molecular Pharmacology Branch, DTP, NCI, 2024).

Test system: 327498-153-R-J2-PDC complex spheroid growth, % test/control
Assay: Anticancer human tumor 327498-153-R-J2-PDC patient-derived uterine carcinosarcoma cell line growth inhibition [Asc]
Conditions: for viability, T/C: stronger effect = lower value
In short: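 Complex solid-tumor spheroids incorporating human endothelial and mesenchymal stem cells received single agents or combinations over half-log dilution ranges anchored to clinical Cmax.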

[1] = curve of first compound, second compound 0.1 µM
[2] = curve of first compound, second compound 0.316 µM
[3] = curve of first compound, second compound 1 µM
[4] = second compound 0.1 µM, first compound 0.00316 µM
[5] = second compound 0.1 µM, first compound 0.01 µM
[6] = second compound 0.1 µM, first compound 0.0316 µM
[7] = second compound 0.1 µM, first compound 0.1 µM
[8] = second compound 0.1 µM, first compound 0.316 µM
[9] = second compound 0.1 µM, first compound 1 µM
[10] = second compound 0.316 µM, first compound 0.00316 µM
[11] = second compound 0.316 µM, first compound 0.01 µM
[12] = second compound 0.316 µM, first compound 0.0316 µM
[13] = second compound 0.316 µM, first compound 0.1 µM
[14] = second compound 0.316 µM, first compound 0.316 µM
[15] = second compound 0.316 µM, first compound 1 µM
[16] = second compound 1 µM, first compound 0.00316 µM
[17] = second compound 1 µM, first compound 0.01 µM
[18] = second compound 1 µM, first compound 0.0316 µM
[19] = second compound 1 µM, first compound 0.1 µM
[20] = second compound 1 µM, first compound 0.316 µM
[21] = second compound 1 µM, first compound 1 µM
[22] = curve of first compound, second compound 3.16 µM
[23] = curve of first compound, second compound 10 µM
[24] = second compound 3.16 µM, first compound 0.00316 µM
[25] = second compound 3.16 µM, first compound 0.01 µM
[26] = second compound 3.16 µM, first compound 0.0316 µM
[27] = second compound 3.16 µM, first compound 0.1 µM
[28] = second compound 10 µM, first compound 0.00316 µM
[29] = second compound 10 µM, first compound 0.01 µM
[30] = second compound 10 µM, first compound 0.0316 µM
[31] = second compound 10 µM, first compound 0.1 µM
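Further: spheroids exposed to compound for 7 days after 3 days of growth.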
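Wherever viability, T/C is given: 100% = DMSO vehicle control wells.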

## COc1c(OCCCN2CCOCC2)ccc2c3n(c(=NC(=O)c4cnc(N)nc4)nc12)CCN3 + CNC(C)C(=O)NC1CN(S(=O)(=O)c2cccc(S(=O)(=O)N3CCC4CCC(C(=O)NC(c5ccccc5)c5ccccc5)N4C(=O)C(NC(=O)C(C)NC)C3)c2)CCC2CCC(C(=O)NC(c3ccccc3)c3ccccc3)N2C1=O
Curve of first compound, second compound 0.01 µM
  IC50: 144 nM
Curve of first compound, second compound 0.0316 µM
  IC50: 144 nM
[1]
  IC50: 135 nM
[2]
  IC50: 137 nM
[3]
  IC50: 146 nM
Second compound 0.01 µM, first compound 0.00316 µM
  viability, T/C: 93.4%
Second compound 0.01 µM, first compound 0.01 µM
  viability, T/C: 92.7%
Second compound 0.01 µM, first compound 0.0316 µM
  viability, T/C: 92.3%
Second compound 0.01 µM, first compound 0.1 µM
  viability, T/C: 57.5%
Second compound 0.01 µM, first compound 0.316 µM
  viability, T/C: 27.6%
Second compound 0.01 µM, first compound 1 µM
  viability, T/C: 4.73%
Second compound 0.0316 µM, first compound 0.00316 µM
  viability, T/C: 96.7%
Second compound 0.0316 µM, first compound 0.01 µM
  viability, T/C: 94.9%
Second compound 0.0316 µM, first compound 0.0316 µM
  viability, T/C: 79.1%
Second compound 0.0316 µM, first compound 0.1 µM
  viability, T/C: 62.1%
Second compound 0.0316 µM, first compound 0.316 µM
  viability, T/C: 27.8%
Second compound 0.0316 µM, first compound 1 µM
  viability, T/C: 3.85%
[4]
  viability, T/C: 106%
[5]
  viability, T/C: 89.5%
[6]
  viability, T/C: 85.7%
[7]
  viability, T/C: 59%
[8]
  viability, T/C: 25.7%
[9]
  viability, T/C: 3.38%
[10]
  viability, T/C: 111%
[11]
  viability, T/C: 110%
[12]
  viability, T/C: 86.1%
[13]
  viability, T/C: 59%
[14]
  viability, T/C: 26.9%
[15]
  viability, T/C: 2.23%
[16]
  viability, T/C: 111%
[17]
  viability, T/C: 95.2%
[18]
  viability, T/C: 85.1%
[19]
  viability, T/C: 65%
[20]
  viability, T/C: 24.8%
[21]
  viability, T/C: 2.95%

## Cc1c(S(C)(=O)=O)c(-c2cc(F)cc(N3CCN(c4ccc(NS(=O)(=O)c5ccc(NC(CCN6CCC(C(=O)OCCCP(=O)(O)O)CC6)CSc6ccccc6)c(S(=O)(=O)C(F)(F)F)c5)cc4)CC3)c2)c(-c2ccc(Cl)cc2)n1C(C)C (stereo unspecified)
Compound 0.1 µM
  viability, T/C: 94.6% [middle of 14 runs]
Compound 0.316 µM
  viability, T/C: 96.1% [middle of 14 runs]
Compound 1 µM
  viability, T/C: 94.4% [middle of 14 runs]
Compound 3.16 µM
  viability, T/C: 90.3% [middle of 14 runs]
Compound 10 µM
  viability, T/C: 166% [middle of 14 runs]
Compound alone, run of 09/27/2022
  IC50: > 10000 nM

## CNC(C)C(=O)NC1CN(S(=O)(=O)c2cccc(S(=O)(=O)N3CCC4CCC(C(=O)NC(c5ccccc5)c5ccccc5)N4C(=O)C(NC(=O)C(C)NC)C3)c2)CCC2CCC(C(=O)NC(c3ccccc3)c3ccccc3)N2C1=O (stereo unspecified) + Cc1c(S(C)(=O)=O)c(-c2cc(F)cc(N3CCN(c4ccc(NS(=O)(=O)c5ccc(NC(CCN6CCC(C(=O)OCCCP(=O)(O)O)CC6)CSc6ccccc6)c(S(=O)(=O)C(F)(F)F)c5)cc4)CC3)c2)c(-c2ccc(Cl)cc2)n1C(C)C
[1]
  IC50: > 1000 nM
[2]
  IC50: > 1000 nM
[3]
  IC50: > 1000 nM
[22]
  IC50: > 1000 nM
[23]
  IC50: > 1000 nM
[4]
  viability, T/C: 94.1%
[5]
  viability, T/C: 91.2%
[6]
  viability, T/C: 98%
[7]
  viability, T/C: 92.3%
[8]
  viability, T/C: 93.8%
[9]
  viability, T/C: 82.4%
[10]
  viability, T/C: 93.1%
[11]
  viability, T/C: 93.3%
[12]
  viability, T/C: 96.6%
[13]
  viability, T/C: 87.2%
[14]
  viability, T/C: 87.7%
[15]
  viability, T/C: 83.9%
[16]
  viability, T/C: 100%
[17]
  viability, T/C: 90.6%
[18]
  viability, T/C: 97%
[19]
  viability, T/C: 80.3%
[20]
  viability, T/C: 82.1%
[21]
  viability, T/C: 92.2%
[24]
  viability, T/C: 84.4%
[25]
  viability, T/C: 90.8%
[26]
  viability, T/C: 88.4%
[27]
  viability, T/C: 86%
Second compound 3.16 µM, first compound 0.316 µM
  viability, T/C: 89.8%
Second compound 3.16 µM, first compound 1 µM
  viability, T/C: 85%
[28]
  viability, T/C: 173%
[29]
  viability, T/C: 166%
[30]
  viability, T/C: 156%
[31]
  viability, T/C: 146%
Second compound 10 µM, first compound 0.316 µM
  viability, T/C: 153%
Second compound 10 µM, first compound 1 µM
  viability, T/C: 136%

## Cn1ncnc1[C@H]1c2n[nH]c(=O)c3cc(F)cc(c23)N[C@@H]1c1ccc(F)cc1 + Cc1c(S(C)(=O)=O)c(-c2cc(F)cc(N3CCN(c4ccc(NS(=O)(=O)c5ccc(NC(CCN6CCC(C(=O)OCCCP(=O)(O)O)CC6)CSc6ccccc6)c(S(=O)(=O)C(F)(F)F)c5)cc4)CC3)c2)c(-c2ccc(Cl)cc2)n1C(C)C
[1]
  IC50: 10.9 nM
[2]
  IC50: 11.4 nM
[3]
  IC50: 7.37 nM
[22]
  IC50: 8.06 nM
[23]
  IC50: 10.3 nM
Second compound 0.1 µM, first compound 0.000316 µM
  viability, T/C: 103%
Second compound 0.1 µM, first compound 0.001 µM
  viability, T/C: 97.1%
[4]
  viability, T/C: 89.5%
[5]
  viability, T/C: 51.4%
[6]
  viability, T/C: 19.3%
[7]
  viability, T/C: 7.05%
Second compound 0.316 µM, first compound 0.000316 µM
  viability, T/C: 92.6%
Second compound 0.316 µM, first compound 0.001 µM
  viability, T/C: 84.5%
[10]
  viability, T/C: 86.9%
[11]
  viability, T/C: 54%
[12]
  viability, T/C: 14.9%
[13]
  viability, T/C: 6.5%
Second compound 1 µM, first compound 0.000316 µM
  viability, T/C: 99.3%
Second compound 1 µM, first compound 0.001 µM
  viability, T/C: 104%
[16]
  viability, T/C: 81.7%
[17]
  viability, T/C: 37.7%
[18]
  viability, T/C: 15.3%
[19]
  viability, T/C: 5.39%
Second compound 3.16 µM, first compound 0.000316 µM
  viability, T/C: 92.7%
Second compound 3.16 µM, first compound 0.001 µM
  viability, T/C: 91.6%
[24]
  viability, T/C: 80.3%
[25]
  viability, T/C: 42.2%
[26]
  viability, T/C: 14.9%
[27]
  viability, T/C: 4.76%
Second compound 10 µM, first compound 0.000316 µM
  viability, T/C: 174%
Second compound 10 µM, first compound 0.001 µM
  viability, T/C: 178%
[28]
  viability, T/C: 150%
[29]
  viability, T/C: 50.1%
[30]
  viability, T/C: 18.2%
[31]
  viability, T/C: 5.74%
